Laboratory results: article PMC8067766 (International Journal of Molecular Sciences, 2021)
Where a SMILES comes first, the peptide text is derived from it.

Columns and labels:
[1] = tested on: 46BR.1N fibroblasts; assay: XTT proliferation assay, fibroblasts; format: cell-based, human; details: for increase in proliferation by fibrils compared to control (XTT): fibrillated form, 10 µL of fibrils (50 µg/mL), 48 h, three independent experiments; for stimulation of proliferation (XTT), in words / inhibition of proliferation (XTT), in words: non-fibrillated peptide, 48 and 72 h; for inhibition of proliferation (XTT), in words: up to 25 µg/mL
Protocol: (§1) Immortalized human HaCaT [69, 70] keratinocytes (DKFZ, Heidelberg, Germany) and the human dermal fibroblast cell line 46BR.1N (ECACC, Sigma Aldrich, St. Louis, MO, USA) were used in the study. Cells were routinely grown in culture flasks (growth surface area 25 cm^2) in Dulbecco’s modified Eagle medium (DMEM, Sigma Aldrich, St. Louis, MO, USA), with 4500 mg/L of glucose, 584 mg/L of L-glutamine, sodium pyruvate, and sodium bicarbonate, supplemented with 10% FBS and 100 units/mL of penicillin and 100 μg/mL of streptomycin (Sigma Aldrich, St. Louis, MO, USA), under a humidified atmosphere with 5% CO2 at 37 °C. Medium was changed every 2–3 days.
(§2) Lactate dehydrogenase (LDH) activity in cell culture supernatants (Takara, Japan, cat. No. MK401) was measured to determine the cytotoxicity of the tested compounds, and the XTT assay was used to evaluate their effect on cell proliferation. Both tests were performed as previously described according to manufacturers’ instructions. Briefly, cells were seeded into 96-well plates, at a density of 5000 cells per well, in DMEM supplemented with 10% FBS. After 24 h the medium was exchanged for serum-free DMEM containing appropriate concentrations of the tested compounds. Supernatants for LDH analysis were collected after 48 h of incubation. The XTT assay was performed after 48 and 72 h of incubation.
(§3) For the analysis of the effect of the peptide fibrils on skin cells, the experiment was performed as described, but the cells were stimulated with 10 µL of the fibrils (50 µg/mL) and incubated for 48 h, when the LDH and XTT assay were then performed.

[2] = tested on: dorsal skin wounds; assay: Wound healing in a dorsal skin excision model in mice; format: in vivo, BALB/c female mice
Excerpt: Eight-week-old BALB/c female mice were used for experiments. All experimental procedures were approved by the Local Ethics Committee in Bydgoszcz (Approval No. 49/2016). The mice were anesthetized with inhaled 2–5% isoflurane. The skin on the back was shaved and disinfected. The skin was folded and raised cranially and caudally along the spine. The mouse was then placed in a lateral position, and the folded skin was pierced with a 6.0 mm diameter biopsy punch, resulting in the formation of two excisional, symmetrical wounds on the back of the mouse. Before peptides administration, mice were randomly divided into treatment and control groups comprising six individuals. A total of 10 µL of 1 mg/mL peptide solution suspended in saline or fibrils solution suspended in PBS at the same concentration, was applied to each wound. Control groups received saline only. The wounds were covered with transparent Tegaderm film and an adhesive plaster was wrapped around the mouse torso. During the first week of the experiment, the wounds were treated with the peptide daily for five consecutive days along with replacement of the dressing. During the second week of the experiment, the dressing was replaced every other day with no further stimulation. For fibrils the solution was administered once after wounding and the dressing was replaced every two days. At the beginning of the third week, the dressing was removed. To measure the wound area, a ruler was placed next to the injury site, and the wound was photographed. Wound areas were calculated using ImageJ software.

[3] = tested on: HaCaT keratinocytes; assay: XTT proliferation assay, keratinocytes; format: cell-based, human; details: for increase in proliferation by fibrils compared to control (XTT): fibrillated form, 10 µL of fibrils (50 µg/mL), 48 h, not statistically significant; for stimulation of proliferation (XTT), in words / inhibition of proliferation (XTT), in words: non-fibrillated peptide, 48 and 72 h; for inhibition of proliferation (XTT), in words: up to 25 µg/mL
Protocol: as §1, §2, §3

[4] = tested on: dorsal skin wounds; assay: Histological analysis of healed skin (Masson's trichrome); format: in vivo, BALB/c female mice; details: skin sampled day 18 after injury
Protocol: Mice were euthanized on day 18 after the injury. Skin from their backs was sampled and stored in formalin. Samples were then embedded in paraffin, cut into 5 µm sections and stained with Masson’s trichrome staining (light green for control and FC-GHK samples and aniline blue for the FC peptide and both fibrillated peptides). Stained sections were evaluated using a light microscope.

[5] = Transmission electron microscopy of fibrils; format: physicochemical; details: 1.0 mg/mL in PBS pH 7.4, TEM, uranyl acetate stain
Protocol: All peptides were dissolved in Eppendorf Low Retention Tubes in 1.0 mL of PBS pH 7.4. The concentration of the solutions of peptides was 1.0 mg/mL. The peptides were incubated at 37 °C with constant orbital shaking. Aliquots for the evaluation of the fibrillization process were taken before incubation and after 1, 2, 3, 6, 14, and 21 days or only after 7 days, depending on the experiments.
Peptide samples (5 µL) were applied on a glow-discharged carbon-coated copper grid (400 mesh). After 1 min of adsorption, excess liquid was removed using filter paper, and the samples were stained with 2% (v/v) aqueous uranyl acetate. The samples were examined with a TECNAI SPIRIT BIO TWIN FEI (FEI Company, Hillsboro, OR, USA) at 120 kV, with nominal magnifications between 11,500 and 39,000. The assay was performed for samples before (after dissolution) and after 3 days of incubation.

[6] = non-fibrillated peptide, 1 mg/mL in saline, five daily applications

fibril thickness (TEM) [5]	SMILES	increase in proliferation by fibrils compared to control (XTT) [1]	stimulation of proliferation (XTT), in words [1]	inhibition of proliferation (XTT), in words [1]	wound closure rate compared to control ([2]; fibrillated peptide, 10 µL of 1 mg/mL in PBS per wound, administered once, n = 16 wounds)	wound closure and scars of FC-GHK compared with FC and control [2, 6]	wound epithelialization compared with the control [2, 6]	wound state on day 14 post-injury [2, 6]	wound closure compared to the control group ([2]; non-fibrillated peptide, 10 µL of 1 mg/mL in saline per wound, five daily applications, n = 12 wounds)	increase in proliferation by fibrils compared to control (XTT) [3]	stimulation of proliferation (XTT), in words [3]	inhibition of proliferation (XTT), in words [3]	muscle cell growth in wound area (histology) ([4]; fibrillated peptide)	muscle cell layer in restored tissue (histology) ([4]; non-fibrillated peptide)
–	CC[C@H](C)[C@H](NC(=O)CNC(=O)[C@H](C)NC(=O)[C@H](CCC(N)=O)NC(=O)CNC(=O)CNC(=O)CNC(=O)[C@@H](NC(=O)[C@@H]1CCCN1C(=O)[C@H](C)NC(=O)[C@H](C)NC(=O)CNC(=O)CNC(=O)CNC(=O)[C@H](CCCCN)NC(=O)[C@H](Cc1c[nH]cn1)NC(=O)CNC(C)=O)C(C)C)C(=O)N[C@H](C(=O)N[C@H](C(N)=O)C(C)C)C(C)C [FC-GHK] (Ac-GHKGGGAAPVGGGQAGIVV-NH2)	about 10%	stimulated proliferation of both tested cell lines at concentrations of 0.01–10 µg/L	slight inhibition of the proliferation of skin cells after 72 h stimulation	the difference in wound closure rate could be observed on day 4 post-injury without statistical significance	faster wound closure than for the FC peptide and significantly smaller scars compared to the control group	increased epithelialization on the second day	closed entirely	significantly and consistently accelerated from day 2 till day 14	about 10%	stimulated proliferation of both tested cell lines at concentrations of 0.01–10 µg/L	slight inhibition of the proliferation of skin cells after 72 h stimulation	No such cell growth was present	modest reconstruction of the muscle cell layer
10–12 nm	CC[C@H](C)[C@H](NC(=O)CNC(=O)[C@H](C)NC(=O)[C@H](CCC(N)=O)NC(=O)CNC(=O)CNC(=O)CNC(=O)[C@@H](NC(=O)[C@@H]1CCCN1C(=O)[C@H](C)NC(=O)[C@H](C)NC(=O)CNC(=O)CNC(=O)CNC(=O)[C@H](CCCCN)NC(=O)[C@H](Cc1c[nH]cn1)NC(=O)CNC(=O)[C@H](CCCCN)NC(C)=O)C(C)C)C(=O)N[C@H](C(=O)N[C@H](C(N)=O)C(C)C)C(C)C [FC-KGHK] (Ac-KGHKGGGAAPVGGGQAGIVV-NH2)	~20%	strongest stimulation was observed for 46BR.1N fibroblasts in concentrations of 0.1–10 µg/mL after 72 h of incubation	did not inhibit the proliferation of skin cells	–	–	–	–	–	about 10%	most potent stimulation was observed at concentrations of 1.0 µg/mL after 48 h and 0.1 µg/mL after 72 h incubation	did not inhibit the proliferation of skin cells	–	–
